From EP0059057A1 (priority 1981, dated 1982)
Like-named read-outs stand apart in the source and are kept apart here.

What was measured:
[1] = system: culture filtrate prepared from an enteropathogenic strain of E. coli; format: in vivo; details: infant mice
[2] = system: Heat stable E. coli enterotoxin from E. coli strain pl6; details: 100 µg/kg
[3] = system: culture filtrate prepared from an enteropathogenic strain of E. coli; details: piglets; for Mean Scour Score ± SEM drug treated: score 0 - 3
[4] = 1 mg/kg p.o., 45 mins prior to challenge
[5] = 5 mg/kg p.o., 45 mins prior to challenge
[6] = 10 mg/kg p.o., 45 mins prior to challenge
[7] = 20 mg/kg p.o., 45 mins prior to challenge
[8] = 100 mg/kg p.o., 45 mins prior to challenge
[9] = 1 mg/kg po., duration of test 6 h
[10] = 1 mg/kg po., duration of test 12 h
[11] = 10 mg/kg po., duration of test 12 h
[12] = 2 x 5 mg/kg po., duration of test 12 h

How did the “% Inhibition” value ([1]; 200 mg/kg p.o., 45 mins prior to challenge) turn out when `C[C@H](N)[C@H](O)c1cccc(O)c1` [Metoraminol] was run?
Its value is 45%.

`CNCC(O)c1ccc(O)c(O)c1` (stereo not shown) [Adrenaline] was tested. Which “% Inhibition” value ([1]; 0.5 mg/kg p.o., 45 mins prior to challenge) did it give?
Its value is 8%.

And the “% Inhibition” value [1, 4]?
Its value is 18%.

What about the “% Inhibition” value [1, 5] of the same molecule?
The value was 54%.

What about the “% Inhibition” value [1, 6] of the same molecule?
Its value is 54%.

What about the “% Inhibition” value [1, 7] of the same molecule?
Its value is 69%.

And the “% Inhibition” value [1, 8]?
Its value is 101%.

What about the “Secretion/(ml/30 min) (mean ± SEM [n=10)” value ([2]; time 0-30 min after toxin (before drug; drug administered 30 min after toxin)) of the same molecule?
The value was 31 ± 3 ml/30 min.

And the “Secretion/(ml/30 min) (mean ± SEM [n=10)” value ([2]; time 30-60 min after toxin)?
Its value is 10 ± 1 ml/30 min.

And the “Secretion/(ml/30 min) (mean ± SEM [n=10)” value ([2]; time 60-90 min after toxin)?
Its value is 8 ± 2 ml/30 min.

What about the “Secretion/(ml/30 min) (mean ± SEM [n=10)” value ([2]; time 90-120 min after toxin) of the same molecule?
Its value is 6 ± 2 ml/30 min.

What about the “Secretion/(ml/30 min) (mean ± SEM [n=10)” value ([2]; time 120-150 min after toxin) of the same molecule?
The value was 8 ± 3 ml/30 min.

What about the “Secretion/(ml/30 min) (mean ± SEM [n=10)” value ([2]; time 150-180 min after toxin) of the same molecule?
The value was 7 ± 2 ml/30 min.

What about the “Secretion/(ml/30 min) (mean ± SEM [n=10)” value ([2]; time -30-0 min after toxin (before toxin and drug)) of the same molecule?
Its value is 3 ± 1 ml/30 min.

Which results are given for `CNCC(O)c1ccc(O)c(O)c1.O=C(O)C(O)C(O)C(=O)O` (stereo not shown) [Adrenaline Bitartrate]?
% Inhibition [1, 4]: 37%; % Inhibition [1, 5]: 36%; % Inhibition [1, 6]: 58%; % Inhibition [1, 7]: 70%; % Inhibition [1, 8]: 96%; % Inhibition of Scour [3, 9]: 11%; Mean Scour Score ± SEM drug treated [3, 9]: 2.0 ± 0.2; % Inhibition of Scour [3, 10]: 16%; Mean Scour Score ± SEM drug treated [3, 10]: 1.8 ± 0.1; % Inhibition of Scour [3, 11]: 98%; Mean Scour Score ± SEM drug treated [3, 11]: 0 ± 0; % Inhibition of Scour [3, 12]: 96%; Mean Scour Score ± SEM drug treated [3, 12]: 0.1 ± 0.1

Which “% Inhibition” value ([1]; 10 mg/kg p.o., in 6mM ascorbate) does the source give for `NC[C@H](O)c1ccc(O)c(O)c1` [Noradrenaline] here?
Its value is 40%.
